From ChEMBL document CHEMBL6178002, “Identification of a RANKL/TNF-α Dual-Inhibitor as a Potential Disease-Modifying Agent for the Treatment of Knee Osteoarthritis” (J Med Chem, 2025)
pIC50, pKd: −log10 of the molar value. Activity calls are given as the source filed them. The calls are words filed in the database; no cut-off is given here.

How the values were obtained:
[1] = Cmax in male Sprague-Dawley rat at 10 mg/kg, po measured for 0.25 to 24 hrs; format: ADME, organism-based; conditions: in vivo, time 0.25-24 hrs
Rattus norvegicus [2] = species on record: Rattus norvegicus; experiment: Anti-inflammatory activity in male Sprague-Dawley rat model of ACLT-induced osteoarthritis assessed as reduction in surface temperature in arthritic joint at 50 to 100 ug, IART treated weekly once for 8 weeks by infrared imaging analysis; format: functional, organism-based; conditions: dose 50-100 µg
Bone marrow macrophage [3] = experiment: Inhibition of RANKL/M-CSF-induced osteoclastogenesis in bone marrow macrophage cells (unknown origin) assessed as decrease in cathepsin K mRNA level at 1 uM by RT-qPCR analysis; format: functional, cell-based; conditions: time <= 5.0 day
RAW264.7 [4] = experiment: Inhibition of NFkappaB activation in mouse RAW264.7 cells assessed as reduction in TNF-alpha-induced NF-kappaB p65 phosphorylation at 10 uM preincubated for 12 hrs followed by TNF-alpha addition measured after 2 hrs by immunofluorescence based analysis; format: cell-based; conditions: time 14.0 hrs
[5] = Oral bioavailability in male Sprague-Dawley rat at 1 mg/kg, iv measured for 0.25 to 24 hrs; format: ADME, organism-based; conditions: in vivo, time 0.25-24 hrs
Tumor necrosis factor = Tumor necrosis factor (Homo sapiens, UniProt P01375); experiment: Binding affinity to CM5 chip-immobilized human TNF-alpha assessed as dissociation constant by SPR analysis
[6] = Cmax in male Sprague-Dawley rat at 1 mg/kg, iv measured for 0.25 to 24 hrs; format: ADME, organism-based; conditions: in vivo, time 0.25-24 hrs
Rattus norvegicus [7] = species on record: Rattus norvegicus; experiment: Anti-inflammatory activity in male Sprague-Dawley rat model of ACLT-induced osteoarthritis assessed as reduction in OARSI score at 50 to 100 ug, IART treated weekly once for 8 weeks; format: functional, organism-based; conditions: dose 50-100 µg
Bone marrow macrophage [8] = experiment: Inhibition of RANKL/M-CSF-induced osteoclastogenesis in bone marrow macrophage cells (unknown origin) assessed as decrease in c-Fos mRNA level incubated for 48 hrs by RT-qPCR analysis; format: functional, cell-based; conditions: dose <= 5.0 µM
Bone marrow macrophage [9] = experiment: Inhibition of RANKL/M-CSF-induced osteoclastogenesis in bone marrow macrophage cells (unknown origin) assessed as decrease in TRAP level incubated for 48 hrs by Western blot analysis; format: functional, cell-based; conditions: dose <= 2.5 µM
RAW264.7 [10] = experiment: Anti-inflammatory activity in LPS-stimulated mouse RAW264.7 cells assessed as decrease in TNF-alpha level at 10 uM preincubated for 24 hrs followed by LPS addition measured after 2 hrs by RT-qPCR analysis; format: functional, cell-based; conditions: time 26.0 hrs
Primary chondrocyte [11] = experiment: Anti-inflammatory activity in IL-1beta-treated C57/BL6 mouse primary chondrocytes assessed as increase in collagen II mRNA level at 10 uM incubated for 24 hrs by RT-qPCR analysis; format: functional, cell-based
Primary chondrocyte [12] = experiment: Anti-inflammatory activity in IL-1beta-treated C57/BL6 mouse primary chondrocytes assessed as decrease in MMP-13 mRNA level at 10 uM incubated for 24 hrs by RT-qPCR analysis; format: functional, cell-based
RAW264.7 [13] = experiment: Anti-inflammatory activity in LPS-stimulated mouse RAW264.7 cells assessed as decrease in IL-6 level at 10 uM preincubated for 24 hrs followed by LPS addition measured after 2 hrs by RT-qPCR analysis; format: functional, cell-based; conditions: time 26.0 hrs
Bone marrow macrophage [14] = experiment: Inhibition of RANKL/M-CSF-induced osteoclastogenesis in bone marrow macrophage cells (unknown origin) assessed as decrease in TRAP mRNA level incubated for 48 hrs by RT-qPCR analysis; format: functional, cell-based; conditions: dose <= 5.0 µM
Primary chondrocyte [15] = experiment: Anti-inflammatory activity in IL-1beta-treated C57/BL6 mouse primary chondrocytes assessed as decrease in MMP-3 mRNA level at 10 uM incubated for 24 hrs by RT-qPCR analysis; format: functional, cell-based
[16] = Inhibition of RANKL/M-CSF-induced osteoclastogenesis in male C57/BL6 mouse bone marrow cells at 0.1 uM incubated for 5 to 7 days by TRAP staining based analysis relative to control; format: functional; conditions: C57/BL6, Bone marrow cell, time 5-7 day
Rattus norvegicus [17] = species on record: Rattus norvegicus; experiment: Anti-inflammatory activity in male Sprague-Dawley rat model of ACLT-induced osteoarthritis assessed as reduction in articular cartilage erosion at 50 to 100 ug, IART treated weekly once for 8 weeks by H and E/S-O/FG staining based analysis; format: functional, organism-based; conditions: dose 50-100 µg
[18] = molecular target: T1, Tumor necrosis factor ligand superfamily member 11 (Homo sapiens, UniProt O14788); experiment: Binding affinity to CM5 chip-immobilized human RANKL assessed as dissociation constant by SPR analysis
T1 sequence (O14788 whole entry): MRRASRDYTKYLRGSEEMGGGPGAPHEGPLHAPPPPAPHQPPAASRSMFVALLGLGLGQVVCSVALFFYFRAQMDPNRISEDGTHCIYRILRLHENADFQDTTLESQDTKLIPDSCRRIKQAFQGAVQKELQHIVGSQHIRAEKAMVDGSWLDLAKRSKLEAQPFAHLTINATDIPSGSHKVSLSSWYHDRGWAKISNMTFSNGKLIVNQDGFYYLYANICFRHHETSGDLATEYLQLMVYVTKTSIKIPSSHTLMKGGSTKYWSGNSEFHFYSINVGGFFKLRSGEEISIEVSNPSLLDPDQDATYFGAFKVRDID

Bone marrow macrophage [19] = experiment: Inhibition of RANKL/M-CSF-induced osteoclastogenesis in bone marrow macrophage cells (unknown origin) assessed as decrease in NFATC1 mRNA level incubated for 48 hrs by RT-qPCR analysis; format: functional, cell-based; conditions: dose <= 5.0 µM
[20] = Tmax in male Sprague-Dawley rat at 10 mg/kg, po measured for 0.25 to 24 hrs; format: ADME, organism-based; conditions: in vivo, time 0.25-24 hrs
[21] = Clearance in male Sprague-Dawley rat at 1 mg/kg, iv measured for 0.25 to 24 hrs; format: ADME, organism-based; conditions: in vivo, time 0.25-24 hrs
Bone marrow macrophage [22] = experiment: Inhibition of RANKL/M-CSF-induced osteoclastogenesis in bone marrow macrophage cells (unknown origin) assessed as decrease in cathepsin K level at 1 uM by Western blot analysis; format: functional, cell-based; conditions: time <= 5.0 day
Bone marrow macrophage [23] = experiment: Inhibition of RANKL/M-CSF-induced osteoclastogenesis in bone marrow macrophage cells (unknown origin) assessed as decrease in MMP-9 level at 1 uM by Western blot analysis; format: functional, cell-based; conditions: time <= 5.0 day
[24] = AUC (0 to t) in male Sprague-Dawley rat at 10 mg/kg, po measured for 0.25 to 24 hrs; format: ADME, organism-based; conditions: in vivo, time 0.25-24 hrs
Bone marrow cell = experiment: (§1) Inhibition of RANKL/M-CSF-induced osteoclastogenesis in male C57/BL6 mouse bone marrow cells incubated for 5 to 7 days by TRAP staining based analysis; format: functional; conditions: dose <= 5.0 µM, time 5-7 day
[25] = as §1; format: functional; conditions: bone marrow cell
RAW264.7 [26] = experiment: Inhibition of NFkappaB activation in mouse RAW264.7 cells assessed as reduction in TNF-alpha-induced NF-kappaB p65 phosphorylation at 1 to 10 uM preincubated for 12 hrs followed by LPS/TNF-alpha addition measured after 2 hrs by Western blot analysis; format: cell-based; conditions: dose 1-10 µM, time 14.0 hrs
Bone marrow macrophage [27] = experiment: Inhibition of RANKL/M-CSF-induced osteoclastogenesis in bone marrow macrophage cells (unknown origin) assessed as decrease in NFATC1 mRNA level at 1 uM by RT-qPCR analysis; format: functional, cell-based; conditions: time <= 5.0 day
Rattus norvegicus [28] = species on record: Rattus norvegicus; experiment: Anti-inflammatory activity in male Sprague-Dawley rat model of ACLT-induced osteoarthritis assessed as reduction in OA-induced pain at 50 to 100 ug, IART treated weekly once for 8 weeks by hot-plate test; format: functional, organism-based; conditions: dose 50-100 µg
[29] = Inhibition of RANKL/M-CSF-induced osteoclastogenesis in male C57/BL6 mouse bone marrow cells at 1 uM incubated for 5 to 7 days by TRAP staining based analysis relative to control; format: functional; conditions: C57/BL6, Bone marrow cell, time 5-7 day

Sequence of Tumor necrosis factor (P01375 whole entry): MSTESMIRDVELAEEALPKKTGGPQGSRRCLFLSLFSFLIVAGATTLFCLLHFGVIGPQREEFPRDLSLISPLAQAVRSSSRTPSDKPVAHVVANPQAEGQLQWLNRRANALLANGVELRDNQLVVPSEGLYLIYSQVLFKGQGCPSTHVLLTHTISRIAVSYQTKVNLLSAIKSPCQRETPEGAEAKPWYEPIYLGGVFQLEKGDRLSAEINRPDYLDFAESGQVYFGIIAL

For `Cc1cccc(C)c1NC(=O)[C@@H]1Cc2c([nH]c3ccccc23)C2(CN(c3ccccc3)C2)N1`, the Cmax [1] was 0.78 µg/mL, the Activity (Rattus norvegicus [2]) was “Active” and the inhibition (Bone marrow macrophage [3]) was “Time-dependent-effect”. The inhibition (RAW264.7 [4]) was “Active”, the bioavailability [5] was 71.4% and the pKd (Tumor necrosis factor) was 4.73. For the same molecule, the Cmax [6] was 0.338 µg/mL, the Activity (Rattus norvegicus [7]) was “Active” and the inhibition (Bone marrow macrophage [8]) was “Dose-dependent-effect”. The inhibition (Bone marrow macrophage [9]) was “Dose-dependent-effect”, the Activity (RAW264.7 [10]) was “Active” and the Activity (Primary chondrocyte [11]) was “Active”. The Activity (Primary chondrocyte [12]) was “Active”, the Activity (RAW264.7 [13]) was “Active” and the inhibition (Bone marrow macrophage [14]) was “Dose-dependent-effect”. The Activity (Primary chondrocyte [15]) was “Active”, the inhibition at 0.1 µM [16] was 59.7% and the Activity (Rattus norvegicus [17]) was “Active”. The pKd [18] was 5.40, the inhibition (Bone marrow macrophage [19]) was “Dose-dependent-effect” and the Tmax [20] was 30 min. The clearance [21] was 4.3 L/h/kg, the inhibition (Bone marrow macrophage [22]) was “Time-dependent-effect” and the inhibition (Bone marrow macrophage [23]) was “Time-dependent-effect”. For the same molecule, the AUC(0-t) [24] was 1.62 µg·h/mL, the inhibition (Bone marrow cell) was “Dose-dependent-effect” and the pIC50 [25] was 6.96. For the same molecule, the inhibition (RAW264.7 [26]) was “Active”, the inhibition (Bone marrow macrophage [27]) was “Time-dependent-effect” and the Activity (Rattus norvegicus [28]) was “Active”. It also gave an inhibition at 1 µM [29] of 98.6%.
